Data as given in patent US20230069749A1, “USE OF POZIOTINIB FOR THE TREATMENT OF CANCERS WITH NRG1 FUSIONS” (Board of Regents, The University of Texas System, priority 2020, published 2023).

Tested on: NRG1-DOC4 fusion breast cancer cell line, MDA175-VII
Assay: Cell viability of MDA175-VII cells by Cell Titer Glo assay
Type: cell-based
Conditions: 72 hours; for IC50 values: HER2 targeting antibody alone
Experimental: The cell viability of NRG1-DOC4 fusion breast cancer cell line, MDA175-VII, was tested with treatment of poziotinib with and without antibodies and antibody drug conjugates (ADCs) targeting HER2 and HER2/HER3 dimerization. Cell viability was determined by the Cell Titer Glo assay.

Row | IC50 (poziotinib alone) | Compound | IC50 values
1 |  | T-DM1 | 0.6345 µg/mL
2 | 0.287 nM | C=CC(=O)N1CCC(Oc2cc3c(Nc4ccc(Cl)c(Cl)c4F)ncnc3cc2OC)CC1 [poziotinib, 1-[4-[4-(3,4-dichloro-2-fluoroanilino)-7-methoxyquinazolin-6-yl]oxypiperidin-1-yl]prop-2-en-1-one] | 
3 |  | pertuzumab: recombinant, humanized monoclonal antibody that inhibits dimerization of HER2 | 0.0537 µg/mL
